Laboratory results published in ChEMBL document CHEMBL5046265, “Synthesis of Hemiprotonic Phenanthroline-Phenanthroline+ Compounds with both Antitumor and Antimicrobial Activity” (J Med Chem, 2022).
The source made the active and inactive calls.

Legend:
Type in all cases: functional, organism-based
Conditions in all cases: time 9.0 day
Mus musculus [1] = test: Anti-Cryptococcal activity against Cryptococcus neoformans infected pneumonia and encephalitis C57BL/6J mouse model assessed as increase in body weight at 8 mg/kg, iv administered once a day for 9 days
Mus musculus [2] = test: Anti-Cryptococcal activity against Cryptococcus neoformans infected pneumonia and encephalitis C57BL/6J mouse model assessed as improvement in clinical symptoms at 8 mg/kg, iv administered once a day for 9 days
Mus musculus [3] = test: Anti-Cryptococcal activity against Cryptococcus neoformans infected pneumonia and encephalitis C57BL/6J mouse model assessed as reduction in pneumonia symptoms at 8 mg/kg, iv administered once a day for 9 days and measured at 24 hrs at last post-dosage
Mus musculus [4] = test: Anti-Cryptococcal activity against Cryptococcus neoformans infected pneumonia and encephalitis C57BL/6J mouse model assessed as reduction in brain edema at 8 mg/kg, iv administered once a day for 9 days and measured at 24 hrs at last post-dosage

Measured: Activity

OC(Cn1cncn1)(Cn1cncn1)c1ccc(F)cc1F
active: all assays above
